Laboratory results: patent US20100135905A1, “ASSESSMENT OF CANCER SUSCEPTIBILITY TO MOLECULAR TARGETED THERAPY BY USE OF RECOMBINANT PEPTIDES” (priority 2004, published 2010)

What was measured:
LLC tumors = assay: In vivo panning of T7 phage peptide library: phage recovered from irradiated LLC tumors; parameters: species or system mice; details: Experiment A, 3 Gy
Procedure: (§1) GL261 murine glioma cells and Lewis lung carcinoma (LLC) cells were implanted into the hind limb of C57BL/6 mice (see Hallahan et al., 1995b; Hallahan et al., 1998; Hallahan & Virudachalam, 1999).
(§2) For in vivo panning, tumors were irradiated with 3 Gy and approximately 10^10 phage (prepared as described in Example 1) were administered by tail vein injection into each of the tumor bearing mice at 4 hours following irradiation. Tumors were recovered at one hour following injection and amplified in BL21 bacteria. Amplified phage were pooled and re-administered to a tumor-bearing mouse following tumor irradiation. The phage pool was sequentially administered to a total of 6 animals. As a control, wild type phage lacking synthetic peptide inserts were identically administered to a second experimental group of animals.
(§3) To determine the titer of phage binding in a tumor or in normal tissue, recovered phage were amplified in BL21 bacteria. Bacteria were plated and the number of plaques present was counted. To determine the total phage output per organ, the number of plaque forming units (PFU) on each plate was divided by the volume of phage plated and the weight of each organ. Normal variation was observed as a 2-fold difference in PFU. In the present Example, background binding within tumor blood vessels was approximately 10^4 phage. Phage that bound to the vasculature within irradiated tumors show enrichment in the tumor relative to other organs and enrichment in the irradiated tumor relative to the control phage without DNA insert.
(§4) Following six rounds of in vivo panning, fifty recombinant phage peptides that bound within irradiated tumors were randomly selected for further analysis. The nucleic acid sequence encoding recombinant phage was amplified by PCR using primers set forth as SEQ ID NOs: 20-21 (available from Novagen Brand, a unit of EMD Biosciences, Inc., Madison, Wis.). An individual phage suspension was used as template. Amplified peptides were sequenced using an ABI PRISM® 377 sequencer (Applied Biosystems of Foster City, Calif., United States of America).

GL261 tumors = assay: In vivo panning of T7 phage peptide library: phage recovered from irradiated GL261 tumors; parameters: species or system mice; details: Experiment A, 3 Gy
Procedure: as §1, §2, §3, §4

[1] = test system: B16F0 melanoma, lung carcinoma and glioma tumor models; assay: Binding of phage-encoded peptides in additional tumor models; format: in vivo; details: phage encoding the peptide
Source text: The binding properties of phage encoding HVGGSSV (SEQ ID NO: 1), […] (SEQ ID NO: 2), […] (SEQ ID NO: 3), and SVGSRV (SEQ ID NO: 4) were additionally characterized in a B16F0 melanoma model.

responding tumor = assay: Near infrared imaging of Cy7-labeled phage peptide in tumor-bearing mice; format: in vivo, mouse
Procedure: To determine the feasibility of imaging phage peptides binding within tumors, a Xenogen imaging system (Xenogen Corp., Alameda, Calif., United States of America) and near infrared imaging of Cy7-labeled recombinant peptides selected from phage libraries was employed. In order to examine the binding of recombinant phage peptides to responding tumors, preliminary experiments were performed to test the background binding of negative control phage in tumor-bearing animals. The […] was labeled with Cy7 and injected by tail vein into a mouse bearing tumors in both hind limbs. […] The time course of labeled negative control phage circulating throughout the animal over 6 hours was determined. At 1 hour post-injection via the tail vein, Cy7-labeled phage was distributed throughout the entire animal. At 6 hours after tail vein injection, clearance through the kidneys was observed.

D54 and LLC tumors = assay: Imaging of Alexfluor 750-conjugated peptide in responding and non-responding tumors; format: in vivo, nude mice
Procedure: D54 and LLC tumors were implanted into both hind limbs of nude mice as described in Example 2. Tumors were grown over the course of seven to 10 days.
At 24 hours following drug administration, mice were injected with Alexfluor 750-conjugated HVGGSSV (SEQ ID NO: 1) peptide through a jugular catheter.

treated tumors = assay: Kinetics of Cy 7 conjugated peptide binding to treated tumors, daily imaging; format: in vivo, mouse; details: Cy 7 conjugate
Procedure: To study the kinetics of peptide binding to treated tumors, animals were imaged daily following administration of Cy 7 conjugated HVGGSSV (SEQ ID NO: 1) peptide. […] At 40 hours, the peptide was excreted by the kidneys. Tumors were located in the left hind limb.

[2] = test system: tumor vascular endothelium; assay: Histochemistry of tumor sections after biotinylated peptide; format: in vivo; details: 24 hours after administration
Procedure: To determine whether peptide binds to endothelium or blood components, tumors were sectioned at 24 hours following administration of biotinylated HVGGSSV (SEQ ID NO: 1) peptide. Tumor sections were then stained with strepavidin conjugates for histochemistry.

[3] = number of sequenced phage after six rounds

In the case of “HVGGSSV (Peptide that binds to LLC and/or GL261 tumors) [peptide isolated by in vivo panning of a phage library]”, the “Phage Recovered from LLC tumors” value (LLC tumors; [3]) is reported as 7, the “Phage Recovered from LLC tumors (Frequency)” value (LLC tumors; six rounds) is reported as “(28%)” and the “Phage Recovered from GL261 tumors” value (GL261 tumors; [3]) is reported as 12. For the same substance, the “Phage Recovered from GL261 tumors (Frequency)” value (GL261 tumors; six rounds) was “(48%)”, the “Tumor models within which the phage-encoded peptide bound” value [1] was “bound within the melanoma, lung carcinoma, and glioma tumor models” and the “Binding of Cy7-labeled phage peptide in treated tumor” value (responding tumor; SU11248 and 3 Gy to right hind limb tumor) was “bound within the responding tumor”. For the same substance, the “Binding of Cy7-labeled phage peptide in tumors” value (responding tumor; mouse treated with SU11248 40 mg/kg, one hind limb tumor 3 Gy 24 hours prior to imaging) was “observed in the responding tumor but not an non-responding tumor”, the “Phage binding in negative control tumor” value (responding tumor; no SU11248 or radiation, 24 hours after tail vein injection) was “minimal phage binding” and the “Labeled peptide binding in tumor” value (D54 and LLC tumors; Alexfluor 750 conjugate, tumor treated with SU11248 and radiation, 24 hours after drug) was “Intense peptide binding”. For the same substance, the “Uptake in tumors treated with SU11248 alone compared to untreated tumors” value (D54 and LLC tumors; responding versus non-responding tumors) was “differentially bound to tumors that responded to SU11248 therapy”, the “Labeled peptide binding in tumor” value (D54 and LLC tumors; tumors not responding to therapy, SU11248 alone) was “no increase in peptide binding” and the “Time at which peptide was excreted by the kidneys” value (treated tumors) was 40 h. The “Time over which peptide circulated throughout the mouse” value (treated tumors) was 28 h, the “Time over which peptide remained bound to the tumor” value (treated tumors) was 162 h and the “Binding within the intravascular blood components” value [2] was “minimal or no binding”. For the same substance, the “Site of peptide binding in tumor sections” value ([2]; streptavidin histochemistry) was “bound primarily to tumor vascular endothelium”.
